Test results from patent US20240148895A1, “ANTIBODY-DRUG CONJUGATE” (Eisai R&D Management Co., Ltd., priority 2022, published 2024).
Like-named read-outs stand apart in the source and are kept apart here.

What was measured:
AsPC-1/Cas9 cell line = assay: AsPC-1/Cas9 growth inhibition assay; assay type: cell-based, human; settings: AsPC-1/Cas9 cells, 5 days culture, CellTiter Glo 2.0, read-out: Absolute IC50—Day 5 (nM) AsPC-1 Cas9
Procedure: The human pancreatic cancer cell line AsPC-1 (ATCC Number CRL1682) was infected with Edit-R Lentiviral hCMV-Blast-Cas9 Nuclease Particle (Dharmacon, VCAS10124) in the presence of 8 μg/ml of Hexadimethrine bromide (Sigma, H9268), and after 24 hours it was exposed to 10 μg/ml of Blastcidin S (Thermo, A11139) to remove the uninfected cells, thereby establishing an AsPC-1/Cas9 cell line. The cells were maintenance cultured in a 5% CO2 incubator (37° C.) using RPMI-1640 (FujiFilm-Wako Pure Chemical Industries) containing 10% fetal bovine serum (FBS: SIGMA 173012) and penicillin/streptomycin (FujiFilm-Wako Pure Chemical Industries) (hereunder referred to simply as “culture medium”). After adding 45 μL of AsPC-1/Cas9 cell suspension prepared to 2.0×10^4 cells/mL using culture medium into each well of a 384-well plate (Greiner 781091), the cells were cultured overnight in a 5% CO2 incubator (37° C.). On the following day, 5 μL of the test substance diluted with culture medium was added to each well, and culturing was continued for 5 days in a 5% CO2 incubator (37° C.). Next, 25 μL of CellTiter Glo™ 2.0 (Promega) was added to each well, and the plate contents were mixed for 5 minutes using a plate mixer. The plate was stationed for 10 minutes at room temperature while shielded from light, and then the luminous intensity was measured with an ENVISION™ (Perkin-Elmer). The luminescence value of the wells with addition of test substance was determined as a relative value, with 100% as the luminescence value of the wells with cells but without addition of the test substance, and 0% as the luminescence value of the wells without cells. A plot of test substance concentration against luminescence value % approximated a 4-parameter logistic curve, and the test substance concentration necessary for 50% inhibition of cell growth (Absolute IC50) was calculated, and is shown in Table 4.

[1] = target: HiBiT tagged BRD4-BD1 protein in HEK293/LgBiT/hPGK/HiBiT-BRD4-BD1 cells (Homo sapiens, UniProt O60885); assay: BET BD1 domain degradation assay; assay type: cell-based; set-up: HiBit-linker-BRD4 BD1(1-209); host or cells: HEK293 (ATCC CRL-1573) stably transduced with LgBiT and HiBiT-BRD4-BD1; settings: concentration for 50% reduction in HiBiT-BRD4-BD1 protein level, 3 hours, read-out: Absolute DC50—3 h (nM) HEK293_HiBiT-BRD4-BD1
Source text: HEK293/LgBiT/hPGK/HiBiT-BRD4-BD1 cells were established by introducing LgBiT and HiBiT-BRD4-BD1 into the human fetus renal cell line HEK293 (ATCC Number CRL-1573). LgBiT was introduced using lentivirus vector LV[Exp]-Bsd-EFS>{LgBiT}, and HiBiT-BRD4-BD1 was introduced with lentivirus vector LV[Exp]-Puro-hPGK>{HiBit-linker-BRD4 BD1(1-209)}. The vector plasmids LV[Exp]-Bsd-EFS>{LgBiT} and LV[Exp]-Puro-hPGK>{HiBit-linker-BRD4_BD1(1-209)} were constructed by VectorBuilder Co. The lentivirus was produced using a Mission Lentivirus Packaging Mix (Sigma) according to the manufacturer's protocol. Viral infection and drug selection of infected cells were carried out by the following published method (Akagi T. et. al, PNAS 2003; 100:13567-72). The cells were maintenance cultured in a 5% CO2 incubator (37° C.), using culture medium. A 45 μL portion of cell suspension of HEK293/LgBiT/hPGK/HiBiT-BRD4-BD1 cells prepared to 6.7×10^4 cells/mL using culture medium was added to each well of a collagen I-coated 384-well plate (Falcon 356667), and the cells were cultured overnight in a 5% CO2 incubator (37° C.). On the following day, 5 μL of test substance diluted with RPMI-1640 (FujiFilm-Wako Pure Chemical Industries) containing 10% fetal bovine serum (FBS: SIGMA 173012) and penicillin/streptomycin (FujiFilm-Wako Pure Chemical Industries) was added to each well, and culturing was continued for 3 hours in a 5% CO2 incubator (37° C.). The luminous intensity was measured using a Nono-Glo HiBiT Lytic Detection System (Promega), and the intracellular HiBiT tagged BRD4-BD1 protein level was calculated. After culturing, 25 μL of measuring reagent was added to each well and the plate contents were mixed for 5 minutes using a plate mixer. The plate was stationed for 10 minutes at room temperature while shielded from light, and then the luminous intensity was measured with an ENVISION′ (Perkin-Elmer). The luminescence value of the wells with addition of test substance was determined as a relative value, with 100% as the luminescence value of the wells with cells but without addition of the test substance, and 0% as the luminescence value of the wells without cells. A plot of test substance concentration against luminescence value % approximated a 4-parameter logistic curve, and the test substance concentration necessary for 50% reduction in protein level (Absolute DC50) was calculated and is shown in Table 4.

Compound | IC50 (AsPC-1/Cas9 cell line; Homo sapiens, ASPC1, 120 h) | DC50 [1] | IC50 (AsPC-1/Cas9 cell line)
COc1ccc(C(=O)NC2(C)CCN(C3CCN(c4nc([C@@](CO)(OC5CC5)c5ccccc5)c5cc(-c6cn(C)c(=O)c7[nH]ccc67)ccc5n4)CC3)CC2)cc1N1CCC(=O)NC1=O (stereo in doubt) [Example 104, N-(1′-(4-(1-Cyclopropoxy-2-hydroxy-1-phenylethyl)-6-(6-methyl-7-oxo-6,7-dihydro-1H-pyrrolo[2,3-c]pyridin-4-yl)quinazolin-2-yl)-4-methyl-[1,4′-bipiperidin]-4-yl)-3-(2,4-dioxotetrahydropyrimidine-1(2H)-yl)-4-methoxybenzamide] | 0.073 nM | 0.15 nM | 
COc1ccc(C#CCNC2(C)CCN(C3CCN(c4nc(C(CO)(OC5CC5)c5ccccc5)c5cc(-c6cn(C)c(=O)c7[nH]ccc67)ccc5n4)CC3)CC2)cc1N1CCC(=O)NC1=O (stereo in doubt) [Example 145, (R)-1-(5-(3-((1′-(4-(1-Cyclopropoxy-2-hydroxy-1-phenylethyl)-6-(6-methyl-7-oxo-6,7-dihydro-1H-pyrrolo[2,3-c]pyridin-4-yl)quinazolin-2-yl)-4-methyl-[1,4′-bipiperidin]-4-yl)amino)prop-1-yn-1-yl)-2-methoxyphenyl)dihydropyrimidine-2,4(1H,3H)-dione] |  | 0.045 nM | 0.18 nM
COc1ccc(C#CCNC2(C)CCN(C3CCN(c4nc([C@@](CO)(OC5CC5)c5ccccc5)c5cc(-c6cn(C)c(=O)c7[nH]ccc67)ccc5n4)CC3)CC2)cc1N1CCC(=O)NC1=O [Example 101, (S)-1-(5-(3-((1′-(4-(1-Cyclopropoxy-2-hydroxy-1-phenylethyl)-6-(6-methyl-7-oxo-6,7-dihydro-1H-pyrrolo[2,3-c]pyridin-4-yl)quinazolin-2-yl)-4-methyl-[1,4′-bipiperidin]-4-yl)amino)prop-1-yn-1-yl)-2-methoxyphenyl)dihydropyrimidine-2,4(1H,3H)-dione] |  | 0.083 nM | 0.087 nM
Cn1cc(-c2ccc3nc(N4CC(OC5CCN(C(=O)c6cccc(N7CCC(=O)NC7=O)c6)CC5)C4)nc([C@@](CO)(OC4CC4)c4ccccc4)c3c2)c2cc[nH]c2c1=O [Example 103, (S)-1-(3-(4-((1-(4-(1-Cyclopropoxy-2-hydroxy-1-phenylethyl)-6-(6-methyl-7-oxo-6,7-dihydro-1H-pyrrolo[2,3-c]pyridin-4-yl)quinazolin-2-yl)azetidin-3-yl)oxy)piperidine-1-carbonyl)phenyl)dihydropyrimidine-2,4(1H,3H)-dione] | 0.073 nM | 0.045 nM | 
COc1ccc(C(=O)NC2(C)CCN(CC3CCN(c4nc(C(CO)(OC5CC5)c5ccccc5)c5cc(-c6cn(C)c(=O)c7occc67)ccc5n4)CC3)CC2)cc1N1CCC(=O)NC1=O (centres unmarked) [Example 108, N-(1-((1-(4-(1-Cyclopropoxy-2-hydroxy-1-phenylethyl)-6-(6-methyl-7-oxo-6,7-dihydrofuro[2,3-c]pyridin-4-yl)quinazolin-2-yl)piperidin-4-yl)methyl)-4-methylpiperidin-4-yl)-3-(2,4-dioxotetrahydropyrimidine-1(2H)-yl)-4-methoxybenzamide] | 0.23 nM | 0.21 nM | 
COc1ccc(C(=O)N2C[C@H](C)N(C3CCN(c4nc([C@@](CN)(OC5CC5)c5ccccc5)c5cc(-c6cn(C)c(=O)c7[nH]ccc67)ccc5n4)CC3)C[C@H]2C)cc1N1CCC(=O)NC1=O [Example 114, 1-(5-((2R,5 S)-4-(1-(4-((R)-2-Amino-1-cyclopropoxy-1-phenylethyl)-6-(6-methyl-7-oxo-6,7-dihydro-1H-pyrrolo[2,3-c]pyridin-4-yl)quinazolin-2-yl)piperidin-4-yl)-2,5-dimethylpiperazine-1-carbonyl)-2-methoxyphenyl)dihydropyrimidine-2,4(1H,3H)-dione] | 0.11 nM | 0.33 nM | 
COc1ccc(C(=O)N2C[C@H](C)N(CC3CCN(c4nc([C@@](CN)(OC5CC5)c5ccccc5)c5cc(-c6cn(C)c(=O)c7[nH]ccc67)ccc5n4)CC3)C[C@H]2C)cc1N1CCC(=O)NC1=O [Example 115, 1-(5-((2R,5 S)-4-((1-(4-((R)-2-Amino-1-cyclopropoxy-1-phenylethyl)-6-(6-methyl-7-oxo-6,7-dihydro-1H-pyrrolo[2,3-c]pyridin-4-yl)quinazolin-2-yl)piperidin-4-yl)methyl)-2,5-dimethylpiperazine-1-carbonyl)-2-methoxyphenyl)dihydropyrimidine-2,4-(1H,3H)-dione] | 0.11 nM | 0.15 nM | 
CNCCN(C)C(=O)OCC(OC1CC1)(c1ccccc1)c1nc(N2CCC(CN3C[C@@H](C)N(C(=O)c4ccc(OC)c(N5CCC(=O)NC5=O)c4)C[C@@H]3C)CC2)nc2ccc(-c3cn(C)c(=O)c4[nH]ccc34)cc12 (stereo partly drawn) [Example 119, 2-Cyclopropoxy-2-(2-(4-(((2S,5R)-4-(3-(2,4-dioxotetrahydropyrimidine-1(2H)-yl)-4-methoxybenzoyl)-2,5-dimethylpiperazin-1-yl)methyl)piperidin-1-yl)-6-(6-methyl-7-oxo-6,7-dihydro-1H-pyrrolo[2,3-c]pyridin-4-yl)quinazolin-4-yl)-2-phenylethyl methyl(2-(methylamino)ethyl)carbamate] | 0.23 nM | 1.6 nM | 
CNCCN(C)C(=O)OCC(OC1CC1)(c1ccccc1)c1nc(N2CCC(C#Cc3ccc(OC)c(N4CCC(=O)NC4=O)c3)CC2)nc2ccc(-c3cn(C)c(=O)c4[nH]ccc34)cc12 (centres unmarked) [Example 120, 2-Cyclopropoxy-2-(2-(4-((3-(2,4-dioxotetrahydropyrimidine-1(2H)-yl)-methoxyphenyl)ethynyl)piperidin-1-yl)-6-(6-methyl-7-oxo-6,7-dihydro-1H-pyrrolo[2,3-c]pyridin-4-yl)quinazolin-4-yl)-2-phenylethyl methyl(2-(methylamino)ethyl)carbamate] | 0.58 nM | 2.9 nM | 
Cc1cc(-c2ccc3nc(N4CCC(CN5CCN(C(=O)COc6cccc7c6C(=O)N(C6CCC(=O)NC6=O)C7=O)CC5)CC4)nc(C(CO)(OC4CC4)c4ccccc4)c3c2)cn(C)c1=O (centres unmarked) [Example 122, 4-(2-(4-((1-(4-(1-Cyclopropoxy-2-hydroxy-1-phenylethyl)-6-(1,5-dimethyl-6-oxo-1,6-dihydropyridin-3-yl)quinazolin-2-yl)piperidin-4-yl)methyl)piperazin-1-yl)-2-oxoethoxy)-2-(2,6-dioxopiperidin-3-yl)isoindoline-1,3-dione] | 4.9 nM | 0.15 nM | 
